{
  "source": "patent US20040162297A1",
  "about": "“Adenosine derivative in polymorph I form” (priority 2001, published 2004)",
  "test": "stability of the polymorphic form at ambient temperatures",
  "assay_type": "physicochemical",
  "data": [
    {"smiles": "CC(C)(C)c1nnc([C@H]2O[C@@H](n3cnc4c(Nc5ccc(Cl)cc5F)ncnc43)[C@H](O)[C@@H]2O)o1", "note": "[Polymorph I, (2S,3S,4R,5R)-2-(5-tert-butyl-[1,3,4]-oxadiazol-2-yl)-5-[6-(4-chloro-2-fluorophenylamino)-9H-purin-9-yl]-tetrahydrofuran-3,4-diol]", "values": [
      {"measurement": "stability at ambient temperatures", "result": "particular stability"}
    ]}
  ]
}
